ChEMBL document CHEMBL3046943, “Synthesis, anti-inflammatory and antimicrobial evaluation of novel N1-(quinolin-4yl)ethane-1,2-diamine phenyl urea derivatives” (2013)
In brackets after ≈: the same amount, converted by molar mass. Activity calls are given as the source filed them. The rule behind the calls is not given here.

Tests used:
THP-1 [1] = assay: Anti-inflammatory activity in Homo sapiens (human) THP1 cells assessed as inhibition of LPS-induced IL6 production at 10 uM incubated for 30 min prior to LPS-challenge measured after 24 hr by ELISA relative to control; assay type: functional
Staphylococcus aureus [2] = assay: Antibacterial activity against Staphylococcus aureus MTCC 96 up to 200 ug/ml after 24 hr by agar well diffusion method; assay type: functional, organism-based
Salmonella typhimurium [3] = assay: Antibacterial activity against Salmonella enterica subsp. enterica serovar Typhimurium MTCC 98 up to 200 ug/ml after 24 hr by agar well diffusion method; assay type: functional, organism-based
Candida albicans [4] = assay: Antifungal activity against Candida albicans MTCC 227 after 2 to 3 days by agar well diffusion method; assay type: functional
THP-1 [5] = assay: Anti-inflammatory activity in Homo sapiens (human) THP1 cells assessed as inhibition of LPS-induced TNFalpha production at 10 uM incubated for 30 min prior to LPS-challenge measured after 24 hr by ELISA relative to control; assay type: functional
Aspergillus flavus [6] = assay: Antifungal activity against Aspergillus flavus MTCC 277 up to 200 ug/ml after 2 to 3 days by agar well diffusion method; assay type: functional, organism-based
Fusarium solani [7] = assay: Antifungal activity against Fusarium solani MTCC 350 up to 200 ug/ml after 2 to 3 days by agar well diffusion method; assay type: functional, organism-based
Escherichia coli [8] = assay: Antibacterial activity against Escherichia coli MTCC 443 up to 200 ug/ml after 24 hr by agar well diffusion method; assay type: functional, organism-based
Bacillus subtilis [9] = assay: Antibacterial activity against Bacillus subtilis MTCC 441 up to 200 ug/ml after 24 hr by agar well diffusion method; assay type: functional, organism-based
Aspergillus niger [10] = assay: Antifungal activity against Aspergillus niger MTCC 281 up to 200 ug/ml after 2 to 3 days by agar well diffusion method; assay type: functional, organism-based
Staphylococcus aureus [11] = assay: Antibacterial activity against Staphylococcus aureus MTCC 96 after 24 hr by agar well diffusion method; assay type: functional; conditions: MTCC 96, 24 h
Aspergillus flavus [12] = assay: Antifungal activity against Aspergillus flavus MTCC 277 after 2 to 3 days by agar well diffusion method; assay type: functional
Salmonella typhimurium [13] = assay: Antibacterial activity against Salmonella enterica subsp. enterica serovar Typhimurium MTCC 98 after 24 hr by agar well diffusion method; assay type: functional; conditions: MTCC 98, 24 h
Fusarium solani [14] = assay: Antifungal activity against Fusarium solani MTCC 350 after 2 to 3 days by agar well diffusion method; assay type: functional
Bacillus subtilis [15] = assay: Antibacterial activity against Bacillus subtilis MTCC 441 after 24 hr by agar well diffusion method; assay type: functional; conditions: MTCC 441, 24 h
Escherichia coli [16] = assay: Antibacterial activity against Escherichia coli MTCC 443 after 24 hr by agar well diffusion method; assay type: functional; conditions: MTCC 443, 24 h
Aspergillus niger [17] = assay: Antifungal activity against Aspergillus niger MTCC 281 after 2 to 3 days by agar well diffusion method; assay type: functional
Aspergillus flavus [18] = assay: Ratio of miconazole MIC to compound MIC for Aspergillus flavus MTCC 277; assay type: functional
Candida albicans [19] = assay: Ratio of miconazole MIC to compound MIC for Candida albicans MTCC 227; assay type: functional
THP-1 [20] = assay: Anti-inflammatory activity in Homo sapiens (human) THP1 cells assessed as inhibition of LPS-induced TNFalpha production at 1 uM incubated for 30 min prior to LPS-challenge measured after 24 hr by ELISA relative to control; assay type: functional
THP-1 [21] = assay: Anti-inflammatory activity in Homo sapiens (human) THP1 cells assessed as inhibition of LPS-induced IL6 production at 1 uM incubated for 30 min prior to LPS-challenge measured after 24 hr by ELISA relative to control; assay type: functional
Candida albicans [22] = assay: Antifungal activity against Candida albicans MTCC 227 up to 200 ug/ml after 2 to 3 days by agar well diffusion method; assay type: functional, organism-based

MIC (Candida albicans [4]) [µg/mL] | MIC (Staphylococcus aureus [11]) [µg/mL] | MIC (Aspergillus flavus [12]) [µg/mL] | MIC (Salmonella typhimurium [13]) [µg/mL] | MIC (Fusarium solani [14]) [µg/mL] | MIC (Bacillus subtilis [15]) [µg/mL] | MIC (Escherichia coli [16]) [µg/mL] | MIC (Aspergillus niger [17]) [µg/mL] | SMILES | inhibition at 10 µM (THP-1 [1]) [%] | Activity (Salmonella typhimurium [3]) | inhibition at 10 µM (THP-1 [5]) [%] | Activity (Escherichia coli [8]) | Activity (Bacillus subtilis [9]) | also measured
90 (≈ 497 µM) |  |  |  |  |  |  |  | O=c1cc[nH]c2c(F)cc(F)cc12 [6,8-DIFLUOROQUINOLIN-4(1H)-ONE] | 0 | inactive | 0 | inactive | inactive | Activity (Staphylococcus aureus [2]): inactive; Activity (Aspergillus flavus [6]): inactive; Activity (Fusarium solani [7]): inactive; Activity (Aspergillus niger [10]): inactive
25 (≈ 67.5 µM) | 40 (≈ 108 µM) | 30 (≈ 81 µM) | 35 (≈ 94.5 µM) | 20 (≈ 54 µM) | 30 (≈ 81 µM) | 40 (≈ 108 µM) | 35 (≈ 94.5 µM) | Cc1ccc(NC(=O)NCCNc2ccnc3c(F)cc(F)cc23)cc1C | 16 |  | 11 |  |  | 
15 (≈ 41.6 µM) | 20 (≈ 55.5 µM) | 15 (≈ 41.6 µM) | 20 (≈ 55.5 µM) | 20 (≈ 55.5 µM) | 20 (≈ 55.5 µM) | 15 (≈ 41.6 µM) | 20 (≈ 55.5 µM) | O=C(NCCNc1ccnc2c(F)cc(F)cc12)Nc1ccccc1F | 18 |  | 11 |  |  | Ratio (Aspergillus flavus [18]): 1.3; Ratio (Candida albicans [19]): 1.3
40 (≈ 101 µM) | 90 (≈ 228 µM) | 30 (≈ 76 µM) |  | 60 (≈ 152 µM) | 90 (≈ 228 µM) |  | 75 (≈ 190 µM) | O=C(NCCNc1ccnc2c(F)cc(F)cc12)Nc1cccc(Cl)c1F | 27 | inactive | 16 |  |  | 
90 (≈ 451 µM) |  | 90 (≈ 451 µM) |  |  |  |  | 90 (≈ 451 µM) | Fc1cc(F)c2nccc(Cl)c2c1 [4-CHLORO-6,8-DIFLUOROQUINOLINE] | 0 | inactive | 0 | inactive | inactive | Activity (Staphylococcus aureus [2]): inactive; Activity (Fusarium solani [7]): inactive
25 (≈ 66.8 µM) | 25 (≈ 66.8 µM) | 20 (≈ 53.4 µM) | 30 (≈ 80.1 µM) | 20 (≈ 53.4 µM) | 20 (≈ 53.4 µM) | 25 (≈ 66.8 µM) | 30 (≈ 80.1 µM) | Cc1ccc(F)cc1NC(=O)NCCNc1ccnc2c(F)cc(F)cc12 | 40 |  | 28 |  |  | 
90 (≈ 219 µM) | 75 (≈ 183 µM) | 90 (≈ 219 µM) | 90 (≈ 219 µM) | 90 (≈ 219 µM) | 90 (≈ 219 µM) | 90 (≈ 219 µM) |  | O=C(NCCNc1ccnc2c(F)cc(F)cc12)Nc1ccc(C(F)(F)F)cc1 | 35 |  | 23 |  |  | Activity (Aspergillus niger [10]): inactive
15 (≈ 36.6 µM) | 15 (≈ 36.6 µM) | 25 (≈ 60.9 µM) | 15 (≈ 36.6 µM) | 20 (≈ 48.7 µM) | 10 (≈ 24.4 µM) | 10 (≈ 24.4 µM) | 10 (≈ 24.4 µM) | O=C(NCCNc1ccnc2c(F)cc(F)cc12)Nc1ccccc1C(F)(F)F | 90 |  | 71 |  |  | 
45 (≈ 117 µM) | 40 (≈ 104 µM) | 40 (≈ 104 µM) | 30 (≈ 78 µM) | 50 (≈ 130 µM) | 35 (≈ 91 µM) | 40 (≈ 104 µM) | 35 (≈ 91 µM) | CC(C)c1ccc(NC(=O)NCCNc2ccnc3c(F)cc(F)cc23)cc1 | 82 |  | 68 |  |  | 
20 (≈ 45 µM) | 25 (≈ 56.2 µM) | 20 (≈ 45 µM) | 15 (≈ 33.7 µM) | 20 (≈ 45 µM) | 25 (≈ 56.2 µM) | 20 (≈ 45 µM) | 15 (≈ 33.7 µM) | O=C(NCCNc1ccnc2c(F)cc(F)cc12)Nc1cc(C(F)(F)F)ccc1Cl | 80 |  | 61 |  |  | 

The remaining lines, values behind:

SMILES | MIC (Candida albicans [4]) [µg/mL] | MIC (Staphylococcus aureus [11]) [µg/mL] | MIC (Aspergillus flavus [12]) [µg/mL] | MIC (Salmonella typhimurium [13]) [µg/mL] | MIC (Fusarium solani [14]) [µg/mL] | MIC (Bacillus subtilis [15]) [µg/mL] | MIC (Escherichia coli [16]) [µg/mL] | MIC (Aspergillus niger [17]) [µg/mL] | inhibition at 10 µM (THP-1 [1]) [%] | Activity (Salmonella typhimurium [3]) | inhibition at 10 µM (THP-1 [5]) [%] | Activity (Escherichia coli [8]) | Activity (Bacillus subtilis [9]) | also measured
O=C(NCCNc1ccnc2c(F)cc(F)cc12)Nc1ccccc1OC(F)(F)F | 80 (≈ 188 µM) |  | 80 (≈ 188 µM) |  | 90 (≈ 211 µM) |  |  | 80 (≈ 188 µM) | 96 | inactive | 78 | inactive | inactive | Activity (Staphylococcus aureus [2]): inactive
Clc1ccc(COC(Cn2ccnc2)c2ccc(Cl)cc2Cl)c(Cl)c1 (stereo unspecified) [MICONAZOLE] | 20 (≈ 48.1 µM) |  | 20 (≈ 48.1 µM) |  | 15 (≈ 36 µM) |  |  | 15 (≈ 36 µM) |  |  |  |  |  | 
C[C@@H]1C[C@H]2[C@@H]3CCC4=CC(=O)C=C[C@]4(C)[C@@]3(F)[C@@H](O)C[C@]2(C)[C@@]1(O)C(=O)CO [DEXAMETHASONE] |  |  |  |  |  |  |  |  |  |  |  |  |  | inhibition at 1 µM (THP-1 [20]): 72%; inhibition at 1 µM (THP-1 [21]): 86%
O=C(O)c1cn(C2CC2)c2cc(N3CCNCC3)c(F)cc2c1=O [CIPROFLOXACIN] |  | 20 (≈ 60.4 µM) |  | 20 (≈ 60.4 µM) |  | 15 (≈ 45.3 µM) | 15 (≈ 45.3 µM) |  |  |  |  |  |  | 
NCCNc1ccnc2c(F)cc(F)cc12 |  |  |  |  |  |  |  |  | 0 | inactive | 0 | inactive | inactive | Activity (Staphylococcus aureus [2]): inactive; Activity (Candida albicans [22]): inactive; Activity (Aspergillus flavus [6]): inactive; Activity (Fusarium solani [7]): inactive; Activity (Aspergillus niger [10]): inactive
O=C(NCCNc1ccnc2c(F)cc(F)cc12)Nc1ccc(OC(F)(F)F)cc1 | 90 (≈ 211 µM) | 90 (≈ 211 µM) |  |  |  |  |  |  | 28 | inactive | 16 | inactive | inactive | Activity (Aspergillus flavus [6]): inactive; Activity (Fusarium solani [7]): inactive; Activity (Aspergillus niger [10]): inactive
